Source: patent publication US8575214B2, “MGlu 2/3 agonists” (Eli Lilly and Company, priority 2012, dated 2013)

Columns and labels:
[1] = both, human, pH 7.4
Procedure: Liver S9 fractions are obtained from Xenotech LLC (Lenexa, Mo.). The lot is from a pool of two donors, one male and one female. The liver S9 fraction is prepared and diluted using a homogenization buffer consisting of 50 mM Tris, pH 7.4 at 4° C. and 150 mM potassium chloride without EDTA. Prodrugs are incubated in the liver homogenate for 2 hours at 37° C., after which the concentration of active metabolite is determined by LC/MS/MS. Hydrolysis of Clopidogrel to Clopidogrel Carboxylic Acid is utilized as an assay positive control.
To ensure hydrolysis is not due to chemical instability, prodrugs are also incubated with PBS buffer alone without liver S-9.
A mobile phase gradient is utilized starting mobile phase ratio A/B of 99.9/0.1 and finishing at 1/99.

[2] = system: male, Sprague-Dawley rats; experiment: Reversal of phencyclidine (PCP)-induced hyperlocomotor activity in rats; type: in vivo, rat
Description: Motor activity is monitored by placing individual male, Sprague-Dawley (Harlan, Indianapolis, Ind.) rats in transparent, plastic shoe-box cages of the dimensions 45×25×20 cm, with 1 cm depth of wood chips as bedding, and a metal grill on top of the cage. Motor monitors (Kinder Scientific) consist of a rectangular rack of 12 photobeams arranged in an 8×4 formation, (or a high density grouping of 22 in a 15×7 pattern) at a height of 5 cm, with a second rack (for measuring rearing behaviors) at a height of 15 cm. The shoe box cage is placed inside of these racks, with the racks on a 3 foot high tabletop in an isolated room. A compound of the invention (active) is dosed (intraperitoneal route) within a range of 0.3-10 mg/kg, 30 minutes prior to a 5 mg/kg challenge dose of phencyclidine (PCP). A compound of the invention (prodrug) is orally dosed within a range of 0.3-30 mg/kg, in overnight fasted rats, 4 hours prior to a 5 mg/kg challenge dose of PCP. On the test day, rats are placed in the test cage and allowed to acclimate for 30 minutes prior to PCP challenge; rats are monitored for an additional 60 minutes following PCP administration.
Data analysis and ED50 calculations are conducted using GraphPad Prism (San Diego, Calif. USA). Power analyses have determined that 8-10 rats per group are needed to have appropriate statistical power for detecting treatment differences (power=0.8). A one-way analysis of variance (ANOVA) with a post-hoc Dunnett's multiple comparison test is conducted on the total 60 minute locomotor activity. ED50 calculations are performed using non-linear regression curve fitting on percent reversal transformed data for each dose.

male Sprague-Dawley rats = experiment: Reversal of persistent pain induced by formalin injection; type: in vivo; settings: ip, dosed 1 hour prior to intraplantar formalin, rat
Male Fischer F-344 rats = experiment: Attenuation of stress-induced hyperthermia in rats; type: in vivo; settings: rat, 1-hr pretreatment, relative to vehicle response
Description: In many anxiety disorders, hyperthermia occurs as part of the pathology and is considered a symptom of the disease. Compounds which attenuate stress-induced hyperthermia in animals are believed to be useful in treating anxiety disorders in humans. Generalized anxiety disorder and post traumatic stress disorder are among the disorders that may be treated with such compounds. The conventional and minimally-invasive method for analyzing stress-induced hyperthermia is by measuring body temperature, and stress-induced increases in body temperature, via rectal thermometer. Male Fischer F-344 rats (Harlan, Indianapolis, Ind., USA) weighing between 275-350 g are tested. All animals are individually-housed with food and automated water available ad libitum, and maintained on a 12 h light/dark cycle (lights on at 06:00). Animals are fasted for approximately 12-18 hours before the experiment, which is conducted during the light phase. Rats are dosed intraperitoneal (IP) in a dose volume of 1 mL/kg with compounds of the invention in the range of 0.3, 1, 3, and 10, mg/kg. […]
After the pretreatment period, rats are taken individually to a brightly lit adjacent room where baseline body temperatures are determined by insertion of a rectal probe lubricated with mineral oil. Body temperature is assessed using a […] […] Ten minutes later a second body temperature measurement is recorded (T2). […]

human mGlu3 receptor = biological target: T1, human mGlu3 receptor (Homo sapiens, UniProt Q14832); experiment: Human mGlu3 agonist FLIPR assay; type: cell-based; settings: AV-12 cells expressing human mGlu3, EAAT1 and Gα15; relative EC50; ±52.5 SEM, n=8; read-out: EC50 in the hmGlu3 FLIPR assay
T1 construct: expressed in transfected cells; host or cells: AV-12 cells (Syrian hamster fibroblasts), co-transfected with rat EAAT1 and Galpha15
Description: (§1) AV-12 cell lines, derived from Syrian Hamster fibroblasts and stably expressing the human mGlu2 or mGlu3 receptor and co-transfected with the rat glutamate transporter EAAT 1 (Excitatory Amino Acid Transporter 1) and the Gα15 subunit, are used for these studies. The expression of Gα15 allows Gi-coupled receptors to signal through the phospholipase C pathway, resulting in the ability to measure receptor activation by a fluorometric calcium response assay. […] Intracellular calcium levels are monitored before and after the addition of compounds using a Fluorometric Imaging Plate Reader (FLIPR, Molecular Devices). […] Results are analyzed using Prism v4.03 (GraphPad Software). […] After taking an initial 5-sec fluorescent read on the FLIPR instrument, a compound of the invention is added to the cell plate (50 μL per well). […] The compound effect is measured as maximal minus minimal peak heights in relative fluorescent units (RFUs) corrected for basal fluorescence measured in the absence of glutamate. […] Agonist effects are quantified as percent stimulation induced by compound alone relative to the maximal glutamate response. All data are calculated as relative EC50 values using a four-parameter logistic curve fitting program (ActivityBase v5.3.1.22).

human mGlu2 receptor = biological target: T2, human mGlu2 receptor (Homo sapiens, UniProt Q14416); experiment: Human mGlu2 agonist FLIPR assay; type: cell-based; settings: AV-12 cells expressing human mGlu2, EAAT1 and Gα15; relative EC50; ±5.9 SEM, n=3; read-out: EC50 in the hmGlu2 FLIPR assay
T2 construct: expressed in transfected cells; host or cells: AV-12 cells (Syrian hamster fibroblasts), co-transfected with rat EAAT1 and Galpha15
Description: as §1

[3] = 1 h, 10 µM, pH 7.4
Procedure: Frozen human duodenum intestinal homogenates (1:2 tissue:buffer ratio using 100 mM Tris Phosphate buffer, pH 7.4) are obtained from Celsius In Vitro Technologies (Baltimore, Md.) that were both phenylmethylsulphonylfluoride (PMSF) and EDTA free.
All original tissue collections are performed at 4° C. and immediately frozen at −70° C. Human intestinal homogenates are thawed and diluted to a final protein concentration of 0.5 mg/mL in 100 mM PBS buffer, pH 7.4 immediately prior to the incubations.
Incubations are conducted in 96-well plates and all prodrugs are run in duplicate on each day. Stock prodrug solutions are prepared in water at a concentration of 1 mM. A 200 μL aliquot of 0.5 mg/mL intestinal homogenate and 196 μL of 100 mM PBS buffer are placed in a 96-well plate in a 37° C. water bath. Using a 96-well pipettor, 4 μL of the 1 mM prodrug solution is transferred into the homogenate. Immediately after addition of the prodrug (time zero) and after 1 hour incubation, 50 μL samples of the incubation mixture are removed using an automated disposable simultaneous 96 well pipettor and added directly to 200 μL of methanol quench solution containing 100 ng/mL of Internal Standard. The samples are then centrifuged at 3500 rpm for 5 minutes at 10° C. The supernatant (200 μL) is transferred to a final 96 well PCR plate and sealed for analysis by LC/MS/MS.
Concentrations of hydrolyzed active metabolite in the incubation mixtures are determined using LC/MS/MS detection on a Sciex API 4000 quadrapole mass spectrometer with Analyst version 1.4.2, TurbolonSpray, positive ionization, and Selected Reaction Monitoring (SRM). […]
Averages and standard deviations are calculated using Microsoft® Office Excel® 2007. Amount of hydrolysis is determined as a molar percentage of active metabolite formed relative to prodrug concentration added.

hPepT1 = biological target: T3, hPepT1 (Homo sapiens, UniProt P46059); experiment: In vitro PepT1 GlySar inhibition screen and IC50 determination; type: cell-based; settings: PepT1 transiently transfected HeLa cells
T3 construct: expressed in transfected cells; host or cells: HeLa cells (ATCC), transient transfection with PepT1 DNA using FuGene6
T3 sequence (P46059 1-708): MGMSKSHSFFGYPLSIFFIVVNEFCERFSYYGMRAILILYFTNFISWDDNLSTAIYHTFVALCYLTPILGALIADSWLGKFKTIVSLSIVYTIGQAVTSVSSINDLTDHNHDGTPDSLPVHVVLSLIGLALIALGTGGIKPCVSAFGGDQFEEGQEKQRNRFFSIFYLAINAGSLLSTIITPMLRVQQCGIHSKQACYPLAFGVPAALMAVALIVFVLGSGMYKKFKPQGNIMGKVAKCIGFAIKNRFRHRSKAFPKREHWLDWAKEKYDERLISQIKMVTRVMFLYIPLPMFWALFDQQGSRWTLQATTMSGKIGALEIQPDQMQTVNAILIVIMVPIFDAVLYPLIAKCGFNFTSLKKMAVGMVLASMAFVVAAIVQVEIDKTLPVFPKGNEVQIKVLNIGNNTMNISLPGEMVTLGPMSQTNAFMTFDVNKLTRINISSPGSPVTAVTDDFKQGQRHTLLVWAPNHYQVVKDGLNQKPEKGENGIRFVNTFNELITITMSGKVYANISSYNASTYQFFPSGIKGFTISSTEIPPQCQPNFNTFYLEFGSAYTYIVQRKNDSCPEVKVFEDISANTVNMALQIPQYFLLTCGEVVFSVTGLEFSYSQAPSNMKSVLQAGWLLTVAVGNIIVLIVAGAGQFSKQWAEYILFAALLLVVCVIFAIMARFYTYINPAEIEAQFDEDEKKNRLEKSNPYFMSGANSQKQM
Procedure: HeLa cells, […], (American Type Culture Collection) are grown in Hyclone Medium (Invitrogen, Cat# SH30243) containing 10% fetal bovine serum (FBS), 0.1 mM non essential amino acids (NEAA), and 100 units/mL penicillin with 100 μg/mL streptomycin at 37° C. in a 5% CO2 humidified atmosphere. The cell line is used for up to 40 passages and then discarded. Frozen cells in 1 ml vials are thawed in water bath for 1-2 minutes and added to 5 mL of cell medium at 37° C. Each of the T-flasks is provided with 8.5 mL of the fresh medium and 1.5 mL of the cell stock. Cells are passaged twice during a week. This is achieved by rinsing the flasks with 10 mL of phosphate buffered saline-ethylene diaminetetra acetic acid (PBS-EDTA), adding 2 mL of trypsin for 2-5 minutes, to detach the cells, and adding 8 mL of fresh medium to inhibit further activity of trypsin. Each new flask receives a combination of 8.5 mL of fresh medium and 1.5 mL of cell stock, in order to obtain 1:6 cell dilution. Cells are incubated at 37° C., until ready for the uptake study.
Cells that are 70-80% confluent in the T-flasks are plated 1 day prior to the transfection procedure. The flask with the cell stock is treated with PBS-EDTA and trypsin to detach the cells, and transfection medium is used from this point. Transfection medium consists of Dulbecco's Modified Eagle Medium (DMEM)+NEAA. To each well, 0.5 mL of the cell mixture is added (1.3×10^5 is the desired cell concentration) and the cells are incubated at 37° C. overnight. Twenty four hours before the assay, cells are transfected with PEPT1. Transfection mixture is prepared by mixing 600 μL of serum free transfection medium, 18 μL of FuGene6 (Roche Diagnostics), and 11 μg of the PepT1 DNA. The transfection reagent-DNA complex is incubated for 20 minutes and 24 μL of the reagent-DNA complex is added to each well.
J. Pharm. Exper Ther. 310:437-445). […] Uptake media consists of 140 mM NaCl, 5.4 mM KCl, 1.8 mM CaCl2, 0.8 mM MgSO4, 5 mM Glucose, 25 mM tris(hydroxymethyl)aminomethane buffer (TRIS). The solution is then brought to pH 6.0 using 2-(N-morpholino)ethanesulfonic acid. The incubation volume is 500 μL and is performed at room temperature for 3 minutes. To stop the uptake at the conclusion of the incubation time, the uptake media is aspirated off of the cell monolayer and 500 μL of ice cold PBS added to the well. The cells are washed 3 times with 500 μL of room temperature PBS without Ca^+2 and Mg^+2. The cells are then lysed with 300 μL of 1% Triton X100 H2O solution. […] A no inhibitor control is established and the percent inhibition of each prodrug is calculated with respect to this control.
The incubation and sampling procedures are exactly the same as the PepT1 screen described above.

T2 sequence (Q14416 19-872): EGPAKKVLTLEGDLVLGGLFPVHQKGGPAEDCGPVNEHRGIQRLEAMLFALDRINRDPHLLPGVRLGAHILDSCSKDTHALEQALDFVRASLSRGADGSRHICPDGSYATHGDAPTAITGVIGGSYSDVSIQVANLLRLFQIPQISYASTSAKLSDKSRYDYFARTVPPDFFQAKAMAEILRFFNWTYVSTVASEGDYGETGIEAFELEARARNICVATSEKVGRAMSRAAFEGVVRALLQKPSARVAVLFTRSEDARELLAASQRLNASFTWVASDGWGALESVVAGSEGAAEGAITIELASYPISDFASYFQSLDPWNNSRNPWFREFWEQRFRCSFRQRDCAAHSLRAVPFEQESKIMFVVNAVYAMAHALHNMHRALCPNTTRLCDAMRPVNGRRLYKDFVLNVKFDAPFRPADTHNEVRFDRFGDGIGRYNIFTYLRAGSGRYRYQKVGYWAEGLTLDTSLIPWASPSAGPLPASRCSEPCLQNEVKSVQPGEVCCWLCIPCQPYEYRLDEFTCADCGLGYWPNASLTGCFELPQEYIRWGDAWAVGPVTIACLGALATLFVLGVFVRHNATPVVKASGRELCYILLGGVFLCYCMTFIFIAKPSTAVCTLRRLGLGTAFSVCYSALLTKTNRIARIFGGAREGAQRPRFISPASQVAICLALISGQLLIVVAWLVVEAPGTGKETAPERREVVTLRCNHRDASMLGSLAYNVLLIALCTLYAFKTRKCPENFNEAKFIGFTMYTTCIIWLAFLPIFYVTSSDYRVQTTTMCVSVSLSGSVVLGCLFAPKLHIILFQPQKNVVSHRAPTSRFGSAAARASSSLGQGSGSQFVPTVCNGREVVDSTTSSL
T1 sequence (Q14832 23-879): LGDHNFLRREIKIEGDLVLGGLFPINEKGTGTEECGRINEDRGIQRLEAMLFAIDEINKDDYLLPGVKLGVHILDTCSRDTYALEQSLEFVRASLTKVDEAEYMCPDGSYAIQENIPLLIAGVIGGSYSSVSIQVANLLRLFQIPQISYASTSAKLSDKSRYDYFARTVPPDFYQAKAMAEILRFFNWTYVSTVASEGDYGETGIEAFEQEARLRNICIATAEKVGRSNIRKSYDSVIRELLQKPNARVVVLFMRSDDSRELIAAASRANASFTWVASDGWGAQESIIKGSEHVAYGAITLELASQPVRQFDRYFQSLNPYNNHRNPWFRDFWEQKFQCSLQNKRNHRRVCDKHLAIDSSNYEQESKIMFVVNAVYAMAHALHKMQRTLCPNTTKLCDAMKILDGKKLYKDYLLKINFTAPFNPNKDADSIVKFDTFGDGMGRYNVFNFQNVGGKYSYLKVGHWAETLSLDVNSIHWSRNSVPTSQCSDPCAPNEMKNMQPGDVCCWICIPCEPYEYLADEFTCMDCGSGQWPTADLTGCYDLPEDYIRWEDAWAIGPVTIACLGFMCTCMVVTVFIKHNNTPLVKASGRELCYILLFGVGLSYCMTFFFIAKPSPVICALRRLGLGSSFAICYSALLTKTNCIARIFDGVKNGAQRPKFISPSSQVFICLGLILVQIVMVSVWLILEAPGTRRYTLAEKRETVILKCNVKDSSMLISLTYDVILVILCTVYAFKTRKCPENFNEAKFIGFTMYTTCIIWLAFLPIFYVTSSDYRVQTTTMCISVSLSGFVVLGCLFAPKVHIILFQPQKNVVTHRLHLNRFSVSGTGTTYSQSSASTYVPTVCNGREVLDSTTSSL

COC(=O)[C@H](c1ccccc1Cl)N1CCc2sccc2C1 [Clopidogrel]
Hydrolysis of Clopidogrel to Clopidogrel Carboxylic Acid (positive control) [1]: 73.0%

N[C@@]1(C(=O)O)CC2(CC2)[C@H]2[C@H](C(=O)O)[C@H]21 [Example 2, (1S,2S,5R,6S)-2-Aminospiro[bicyclo[3.1.0]hexane-4,1′-cyclopropane]-2,6-dicarboxylic acid]
ED50 ([2]; 0.5 h, i.p., 30 minutes prior to 5 mg/kg PCP, rat): 1.46 mg/kg | ED50 (male Sprague-Dawley rats): 0.7 mg/kg | T35 (dose producing a 35% reduction in stress-induced hyperthermic response) (Male Fischer F-344 rats): 0.57 mg/kg | EC50 (human mGlu3 receptor): 0.285 µM | EC50 (human mGlu2 receptor): 0.039 µM

C[C@H](N)C(=O)N[C@@]1(C(=O)O)CC2(CC2)[C@H]2[C@H](C(=O)O)[C@H]21.Cl [Example 5, (1S,2S,5R,6S)-2-[[(2S)-2-Aminopropanoyl]amino]spiro[bicyclo[3.1.0]hexane-4,1′-cyclopropane]-2,6-dicarboxylic acid hydrochloride]
ED50 ([2]; Rattus norvegicus, p.o., overnight fasted rats, 4 hours prior to 5 mg/kg PCP): 2.95 mg/kg | T35 (dose producing a 35% reduction in stress-induced hyperthermic response) (Male Fischer F-344 rats): 6.4 mg/kg | human intestinal hydrolysis relative to Internal Prodrug A [3]: 36% | IC50 (hPepT1; 0.0625 to 25 mM, read-out: hPepT1 [3H]Gly-Sar uptake inhibition IC50): 1980 µM | inhibition at 5000 µM (hPepT1; pH 6.0, 3 minutes, read-out: hPepT1 [3H]Gly-Sar uptake inhibition at 5 mM): 89%
